Values joined by “and” are separate entries in the source; they are usually repeats but may differ in a detail not shown here. Equal values may be shown once. Active and inactive are the calls of the source.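 How the source made its calls: active means a concentration killing half the fathead minnows in the acute test was determined; inconclusive means some fish died but not half at top dose; inactive means no fish died even at top dose.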
Tested on: Fathead minnow (Pimephales promelas) acute toxicity, lethality
Experiment: DSSTox (EPAFHM) EPA Fathead Minnow Acute Toxicity
Description: The EPA Fathead Minnow Acute Toxicity database was generated by the U.S. EPA Mid-Continental Ecology Division (MED) for the purpose of developing an expert system to predict acute toxicity from chemical structure based on mode of action considerations. […] A second valuable aspect of this database, from a QSAR modeling perspective, is the inclusion of general mode-of-action (MOA) classifications of acute toxicity response for individual chemicals derived from study results. MOA assignments are biologically based classifications, allowing definition of chemical similarity based upon biological activity instead of organic chemistry functional class as most commonly employed in QSAR study. MOA classifications should strengthen the scientific basis for construction of individual QSARs. However, it is cautioned that the broad MOA categorizations should not be construed to represent a single molecular mechanism; for example, CNS seizure agents and respiratory inhibitors are known to act through a variety of receptors. The EPA Fathead Minnow database and results have been used by EPA MED to build components of the ASTER prediction system, which incorporates MOA-based QSARs for the prediction of aquatic toxicity of environmental and industrial chemicals. Briefly, MOA classifications for individual chemicals, derived from experiments and provided in the EPA Fathead Minnow database, were used to derive substructural rules for assigning a new chemical to an MOA category based solely on chemical structure. Once a new chemical is assigned to an MOA category on this basis, the logP-based QSAR for that MOA category is applied.
The DSSTox EPAFHM database (available from the DSSTox Source URL) includes information pertaining to organic chemical class assignments (ChemClass_FHM), acute toxicity in fathead minnow (LC50_mg), dose-response assessments (LC50_Ratio, ExcessToxicityIndex), behavioral assessments (FishBehaviorTest), joint toxicity MOA evaluations of mixtures (MOA_MixtureTest), and additional MOA evaluation of fish acute toxicity syndrome (FishAcuteToxSyndrome) in rainbow trout. All of these indicators, to the extent available, were considered in the determination of MOA and, additionally, were used to determine a level of confidence in the MOA assignment for each chemical (MOA_Confidence). […] Activity Score is mapping of LOG10 (1/LC50_mmol) activity values spanning activity range [MIN, MAX] onto Integer 1-100 Activity range, where 100 is highest potency and 1 is lowest. If Activity Outcome is "active": Activity Score = 100 * INTEGER[(log10(1/ LC50_mmol) - MIN)/([…])].

Row | SMILES | Potency | outcome
1 | COC(C)=O | 4820 µM | –
2 | CCC1(c2ccccc2)C(=O)NC(=O)NC1=O | 2080 µM | –
3 | CCOC(=O)c1ccccc1O | 122 µM | –
4 | C=CCC#N | 2710 µM | –
5 | CC(C)c1cccc(C(C)C)c1N | 86.3 µM | –
6 | ClC(Cl)=C(Cl)C(Cl)=C(Cl)Cl | 0.345 µM | –
7 | C#CC(C)(O)c1ccccc1 (stereo unspecified) | 773 µM | –
8 | CCCCCCCC(C)=O | 107 µM | –
9 | CC(=O)Nc1cccc(O)c1 | 7480 µM | –
10 | c1ccc(Nc2ccccc2)cc1 | 22.4 µM | –
11 | Oc1ccc(Cl)cc1Cc1cc(Cl)ccc1O | 1.15 µM | –
12 | CN(C)Cc1ccccc1 | 280 µM | –
13 | CCCC(C)C=O (stereo unspecified) | 188 µM | –
14 | CCOP(=S)(OCC)Oc1ccc(S(C)=O)cc1 (stereo unspecified) | 140 µM | –
15 | COCCCNCc1cc(OC)c(OC)c(OC)c1 | 505 µM | –
16 | O=Cc1ccc(Cl)cc1Cl | 10.3 µM | –
17 | C=CC(Cl)CCl (stereo unspecified) | 65.4 µM | –
18 | CCCCCCCCCCN | 6.55 µM | –
19 | CCCCCCCCO | 104 µM | –
20 | CCOC(=O)CCCCC(=O)OCC | 89.9 µM | –
21 | CCCCCCCCCCCCc1ccc(N)cc1 | – | inactive; moa not determined either due to lack of toxicity at saturation or late test res
22 | O=C(/C=C/C=C/c1ccc2c(c1)OCO2)N1CCCCC1 | 27.5 µM | –
23 | COc1c(O)c(Br)cc(C=O)c1[N+](=O)[O-] | 266 µM | –
24 | CCCCCCCCBr | 4.34 µM | –
25 | CC(=O)CC(C)=O | 1350 µM | –
26 | CC(C)[C@@H]1CC[C@@H](C)C[C@H]1O | 121 µM | –

Row | SMILES | Potency | outcome
27 | Nc1ccc(Cl)c(Cl)c1 | 46.7 µM | –
28 | CCCCCCCCCN | 15 µM | –
29 | C=Cn1c2ccccc2c2ccccc21 | 0.0166 µM | –
30 | CC(C)c1ccc2c(c1)CC[C@H]1[C@](C)(C(=O)O)CCC[C@]21C | 6.99 µM | –
31 | CC1(C)[C@H]2CC[C@]1(C)[C@H](O)C2 | 410 µM | –
32 | CCN(CC)CCO | 15200 µM | –
33 | CC=O | 767 µM | –
34 | COC(=O)c1ccc(C#N)cc1 | 290 µM | –
35 | C1CCCCC1 | 53.8 µM | –
36 | Cc1c[nH]c2ccccc12 | 67.4 µM | –
37 | C[N+](C)(C)c1ccccc1 | 924 µM and 1000 µM | –
38 | O=[N+]([O-])c1ccccc1 | 967 µM | –
39 | CCOP(=S)(OCC)SCSc1ccc(Cl)cc1 | 0.7 µM | –
40 | CCCCCCCBr | 8.21 µM | –
41 | CC(C)C(C(=O)OC(C#N)c1cccc(Oc2ccccc2)c1)c1ccc(Cl)cc1 (stereo unspecified) | 0.0121 µM | –
42 | CCCCCCCCCC(C)=O | 8.81 µM | –
43 | O=C(O)c1ccccc1O | 12500 µM | –
44 | CC(C)=CC1C(C(=O)OCc2coc(Cc3ccccc3)c2)C1(C)C (stereo unspecified) | 0.0182 µM | –
45 | CC#N | 40100 µM | –
46 | CCCCCC(=O)OCC | 61.7 µM | –
47 | CCNCCO | 16600 µM | –
48 | O=[N+]([O-])c1ccc(O)cc1C(F)(F)F | 44.1 µM | –
49 | O=Cc1cccc(Oc2ccc(Cl)c(Cl)c2)c1 | 1.12 µM | –
50 | NC(=O)c1ccccc1N | 2900 µM | –
51 | c1ccc2ncccc2c1 | 602 µM | –
52 | CCCCCCCCC(C)=O | 30.9 µM | –

Row | SMILES | Potency | outcome
53 | CC1(C)CC(=O)CC(=O)C1 | 82000 µM | –
54 | COC(=O)c1ccc(C(=O)OC)c(N)c1 | 42.7 µM | –
55 | CC(C)=C1C=C2CC[C@@H]3[C@](C)(CCC[C@@]3(C)C(=O)O)[C@H]2CC1 | 4.93 µM | –
56 | O=P(Oc1c(Cl)cccc1Cl)(Oc1c(Cl)cccc1Cl)Oc1c(Cl)cccc1Cl | – | inactive; moa not determined either due to lack of toxicity at saturation or late test res
57 | CS(C)=O | 435000 µM | –
58 | CCCCO | 23300 µM | –
59 | OCC(Br)CBr (stereo unspecified) | 326 µM | –
60 | O=C1c2ccccc2C(=O)c2ccccc21 | – | inactive; moa not determined either due to lack of toxicity at saturation or late test res
61 | Cc1ccc(C)c(O)c1C | 60.2 µM | –
62 | C(/C=C/c1ccccc1)=C\c1ccccc1 | – | inactive; moa not determined either due to lack of toxicity at saturation or late test res
63 | NCCCN | 16100 µM | –
64 | CN(C)c1ccc(P(=O)(c2ccc(N(C)C)cc2)c2ccc(N(C)C)cc2)cc1 | – | inactive; moa not determined either due to lack of toxicity at saturation or late test res
65 | C#CC(O)CCCC (stereo unspecified) | 15.7 µM | –
66 | CCCCCCC(C)N (stereo unspecified) | 40.2 µM | –
67 | S=c1[nH]c2cc(Cl)ccc2s1 | 15.9 µM | –
68 | C1CCC(C2CCCCC2)CC1 | – | inactive; moa not determined either due to lack of toxicity at saturation or late test res
69 | Cc1cc(Oc2ccc([N+](=O)[O-])cc2)ccc1Cl | – | inactive; moa not determined either due to lack of toxicity at saturation or late test res
70 | ClC(Cl)Cl | 592 µM | –
71 | O=Cc1ccc(O)cc1O | 95 µM | –
72 | CCCO | 75700 µM | –
73 | N#CCCl | 17.8 µM | –
74 | Cc1cc(C)c(C#N)c(=O)[nH]1 | 1060 µM | –
75 | CC(Cl)CCl (stereo unspecified) | 1120 µM | –
76 | NCCO | 33900 µM | –
77 | CCCCCCCCCc1ccc(O)cc1 | 0.635 µM | –
78 | CCc1ccc(C)nc1 | 669 µM | –

Row | SMILES | Potency | outcome
79 | Cc1cc(C(C)(C)C)c(O)c(C(C)(C)C)c1 | 1.65 µM | –
80 | C=C(C)C(=C)C | 84.1 µM | –
81 | Nc1ccc(Cl)c(Cl)c1Cl | 18.5 µM | –
82 | Nc1ccccc1C(=O)c1ccc(Cl)cc1 | 9.15 µM | –
83 | CC1(C)NC(=O)NC1=O | 129000 µM | –
84 | CCCCN | 3660 µM | –
85 | c1ccc(SSc2ccccc2)cc1 | 0.504 µM | –
86 | CCCCCCN | 559 µM | –
87 | Cl/C=C/CCl | 2.15 µM | –
88 | CCc1ccccc1 | 98.9 µM | –
89 | C=CCO | 5.51 µM | –
90 | CC(=O)/C=C/C1=C(C)CCCC1(C)C | 26.5 µM | –
91 | N#CCCCCC#N | 17900 µM | –
92 | CC(=O)c1ccccc1 | 1350 µM | –
93 | NC(=O)c1ccccc1 | 5460 µM | –
94 | CCc1ccccn1 | 3860 µM | –
95 | COc1cc(Cl)c(Cl)cc1O | 23.2 µM | –
96 | NCCN1CCNCC1 | 17000 µM | –
97 | CCCCCC | 29 µM | –
98 | O=C(NC1CCCCC1)OCCCl | 170 µM | –
99 | Clc1cccc(Cl)c1C(Cl)Cl | 4.22 µM | –
100 | COC(C)(C)C | 7620 µM | –
101 | O=P(Oc1ccccc1)(Oc1ccccc1)Oc1ccccc1 | 2.66 µM | –
102 | CCC(=O)O | 49900 µM | –
103 | CCCCCc1ccccc1 | 11.5 µM | –
104 | CCCCOC(=O)c1ccc(C(=O)OCCCC)cc1 | 2.12 µM | –

Row | SMILES | Potency | outcome
105 | CCOCCOCCO | 198000 µM | –
106 | C#CC(C)O (stereo unspecified) | 167 µM | –
107 | Oc1ccccc1Cl | 88.7 µM | –
108 | ClC(Cl)=C(Cl)Cl | 99.5 µM | –
109 | C#CC(C)(C)O | 39100 µM | –
110 | c1ccc(-c2nc(-c3ccccc3)c(-c3ccccc3)[nH]2)cc1 | – | inactive; moa not determined either due to lack of toxicity at saturation or late test res
111 | CCC1(CCC(C)C)C(=O)NC(=O)NC1=O | 377 µM | –
112 | CC(Cl)(Cl)Cl | 355 µM | –
113 | Nc1c(Cl)c(Cl)cc(Cl)c1Cl | 1.17 µM | –
114 | Cc1ccc(C)o1 | 740 µM | –
115 | CC(C)(c1cc(Cl)c(O)c(Cl)c1)c1cc(Cl)c(O)c(Cl)c1 | 3.63 µM | –
116 | CCNc1cccc(C)c1 | 366 µM | –
117 | Nc1ccc([N+](=O)[O-])cc1[N+](=O)[O-] | 80.8 µM | –
118 | CCc1ccc(O)cc1 | 85.1 µM | –
119 | CC(C)O | 144000 µM | –
120 | OCCNCCO | 44800 µM | –
121 | COC(=O)c1cc(Cl)ccc1Cl | 68.3 µM | –
122 | CCCC(C)C1(CC)C(=O)N=C(S)NC1=O (stereo unspecified) | 99.1 µM | –
123 | CNC(=O)Oc1cccc2c1OC(C)(C)C2 | 3.81 µM | –
124 | c1cc(CCc2ccncc2)ccn1 | 820 µM | –
125 | CCC(C)=O | 44700 µM | –
126 | c1ccc2occc2c1 | 119 µM | –

From PubChem BioAssay AID1188 (EPA DSSTox, 2008)
